Legend:
FERM/CD44 interaction = biological target: T1, FERM/CD44 interaction (Homo sapiens, UniProt P16070); experiment: AlphaScreen counter screen, FERM/CD44 interaction; format: binding; details: 1 h
T1 construct: the juxtamembrane region of CD44 (biotin-[…]); made in house
Source text: To validate that the Zuclopenthixol hydrochloride (ZU) and its derivatives interact with the juxtamembrane domain of ErbB2, we first analyzed in AlphaScreen® their efficiency to inhibit FERM/ErbB2 interaction in a dose-dependent manner and determined IC50 value. Furthermore, to test the selectivity of those compounds, we tested their ability to disrupt the interaction between the FERM domain and the known ERM binding motif contained in the juxtamembrane region of CD44 as a control.
AlphaScreen® technology was used to assess the interaction between the Ezrin binding motif (EBM) contained in the juxtamembrane portions of ErbB2 or CD44 with the Ezrin FERM domain. For this purpose the Ezrin FERM domain in fusion with Glutathione-S-Transferase (GST) has been coupled to GSH-coated acceptor beads. Biotinylated ErbB2 peptide encoding the Ezrin binding motif (amino acid 674 to 689: biotin-[…], 26 aa) or the juxtamembrane region of CD44 (biotin-[…]), for the counter screen have been synthesized and coupled to streptavidin-covered donor beads. […]
The reaction was performed using white 384-well Optiplates (PerkinElmer, Whalham, Mass., USA) in 20 μl (total reaction volume) in a reaction buffer containing PBS, pH 7.4, 5 mM MgCl2 and 0.02% CHAPS. […] Light signal was detected with the EnVision® multilabel plate reader (PerkinElmer). […]

MDA-MB-231 = experiment: MTT cell proliferation, MDA-MB-231; format: cell-based; details: 10 μM
Method: We then analyzed the ability of ZU and EB1 and their derivatives to decrease the ErbB2-dependent cell proliferation.
SKBR3, BT474, MCF-7, MDA-MB-231 and HBMEC cells were treated with the compounds as indicated, and cell proliferation was determined each day during 3 days using an MTT assay. Non treated cells were included as a negative control.
The ErbB2-overexpressing gastric cancer cell line N87 and MDAMB-231, a non ErbB2-overexpressing breast cancer cell line were treated with 3, 5 or 7 μM of ZU and cell proliferation was determined each day during 3 days using an MTT assay. Non treated cells were included as a negative control.
The ErbB2-overexpressing ovarian cancer cell line SKOV3 and MDAMB-231, a non ErbB2-overexpressing breast cancer cell line were treated with 3, 5 or 7 μM of ZU and cell proliferation was determined each day during 3 days using an MTT assay. Non treated cells were included as a negative control.

[1] = tested on: human breast cancer BT474 cells; experiment: BT474 orthotopic xenograft in mammary fat pad of mice; format: in vivo, NOD.Cg-Prkdc scid/J mice; details: for tumor growth in vivo (in words): then once per day 3 days
Method: 5.10^6 BT474 cells were implanted orthotopically in the mammary fat pad of NOD.Cg-Prkdc scid/J mice, in the presence of estradiol supplement. After 4 weeks, mice were injected with ZU (N=10, 5 mg/kg per day for 5 days a week, followed by 3 mg/kg for 5 days a week during three weeks for N=6) or vehicle (N=10, 10% DMSO in PBS). Mice weight and tumor volume were measured 3 and 2 times a week respectively.
5.10^6 BT474 cells were implanted orthotopically in the mammary fat pad of NOD.Cg-Prkdc scid/J mice, in the presence of estradiol supplement. Nineteen days after implantation, treatment began and mice were injected i.p. with […] ZU (5 mg/kg per day for 3 days a week, during three weeks for N=9), 4 mg/kg ZU (5 days a week during three weeks, N=8) or vehicle (N=9, 10% DMSO in PBS). Mice weight and tumor volume were measured 3 and 2 times a week respectively.
5.10^6 BT474 cells were implanted orthotopically in the mammary fat pad of NOD.Cg-Prkdc scid/J mice, in the presence of estradiol supplement. After 4 weeks, mice were injected with EB1 3 mg/kg (N=8), 5 mg/kg (N=6) or vehicle (N=8, 10% DMSO in PBS) twice a day for 5 days a week (2×D), during 2 weeks then once per day (1×D) during 3 days. Mice weight and tumor volume were measured 3 and 2 times a week respectively.

[2] = biological target: peptide encoding the juxtamembrane region of ERBB2 (Homo sapiens, UniProt P04626); experiment: Surface Plasmon Resonance, Biacore T200; format: binding
Source text: We analyzed the ability of ZU to directly bind to the juxtamembrane domain of ErbB2 using Surface Plasmon Resonance assays on a Biacore T200. For that, we compared the affinity of the compounds for a peptide containing the Ezrin binding motif […] of ErbB2 immobilized on sensorchips, which was reflected by the amplitude of the SPR response.
Compound ZU and EB1 were validated for their interaction with peptide encoding the juxtamembrane region of ERBB2 using a Biacore T200 (IECB, Bordeaux). Biotinylated peptide encoding the juxtamembrane region of ERBB2 (biotin-[…]) has been immobilized on Streptavidin-coated sensor chips (Series S sensor chip SA, GE Healthcare). Compound ZU in PBS, 0.02% tween20 buffer was used as analyte, and the Ezrin FERM domain has been used as a positive control.

ErbB2 = ErbB2 (Homo sapiens, UniProt P04626); experiment: ErbB2 phosphorylation in SKBR3 cells, dot blot (4G10); format: cell-based; design: endogenous in cells; host or cells: SKBR3; details: SKBR3, 24 h
Method: The ability of ZU and EB1 and their derivatives to inhibit ErbB2 activity in cellulo on a commonly used ErbB2-overexpressing breast cancer cell line SKBR3 was analyzed. SKBR3 were treated 24 h with increasing concentrations of the compounds (0.625-80 μM) and ErbB2 phosphorylation was addressed by dot blot analysis using an anti-phosphotyrosine antibody (clone 4G10). Quantifications show the result of two independent experiments.

Sequence of ErbB2 (P04626 23-1255): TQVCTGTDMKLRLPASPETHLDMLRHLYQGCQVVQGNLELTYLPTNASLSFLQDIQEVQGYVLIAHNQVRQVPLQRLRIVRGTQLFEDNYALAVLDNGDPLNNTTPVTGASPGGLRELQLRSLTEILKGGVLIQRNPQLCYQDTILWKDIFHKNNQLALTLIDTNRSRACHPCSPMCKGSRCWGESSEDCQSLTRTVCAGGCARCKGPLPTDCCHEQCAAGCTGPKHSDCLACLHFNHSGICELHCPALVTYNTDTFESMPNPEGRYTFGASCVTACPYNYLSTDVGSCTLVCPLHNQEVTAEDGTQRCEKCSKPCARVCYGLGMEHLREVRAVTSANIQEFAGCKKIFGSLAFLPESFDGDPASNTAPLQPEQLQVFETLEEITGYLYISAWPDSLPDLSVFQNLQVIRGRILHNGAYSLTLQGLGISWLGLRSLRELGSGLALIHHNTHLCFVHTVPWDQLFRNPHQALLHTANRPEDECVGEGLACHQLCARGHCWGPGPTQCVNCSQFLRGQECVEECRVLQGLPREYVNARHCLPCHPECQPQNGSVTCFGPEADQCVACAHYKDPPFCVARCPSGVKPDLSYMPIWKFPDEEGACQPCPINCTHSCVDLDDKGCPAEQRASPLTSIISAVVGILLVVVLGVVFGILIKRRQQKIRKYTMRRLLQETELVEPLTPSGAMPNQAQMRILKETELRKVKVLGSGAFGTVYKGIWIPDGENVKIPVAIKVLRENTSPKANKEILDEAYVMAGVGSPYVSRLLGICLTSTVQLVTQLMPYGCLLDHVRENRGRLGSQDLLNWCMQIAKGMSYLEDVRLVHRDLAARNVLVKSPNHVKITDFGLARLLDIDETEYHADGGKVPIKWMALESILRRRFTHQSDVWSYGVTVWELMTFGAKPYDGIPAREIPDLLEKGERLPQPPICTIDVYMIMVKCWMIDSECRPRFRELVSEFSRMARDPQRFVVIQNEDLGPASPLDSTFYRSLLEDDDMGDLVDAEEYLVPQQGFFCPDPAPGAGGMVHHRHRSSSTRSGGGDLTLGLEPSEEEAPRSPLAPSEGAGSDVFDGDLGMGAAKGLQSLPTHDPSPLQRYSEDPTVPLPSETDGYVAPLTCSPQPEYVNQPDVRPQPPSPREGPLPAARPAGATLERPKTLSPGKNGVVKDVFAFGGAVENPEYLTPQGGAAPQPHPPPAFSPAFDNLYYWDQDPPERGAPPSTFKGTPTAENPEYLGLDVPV

For `O=C1c2ccccc2[Se](=O)N1c1ccccc1` (stereo not shown) [EB1, Ebselen oxide], the “effect on FERM/CD44 interaction” value (FERM/CD44 interaction) was “without significantly altering FERM/CD44 interaction at low doses”, the “effect on MDA-MB-231 proliferation (in words)” value (MDA-MB-231) was “without any effect” and the “tumor growth in vivo (in words)” value ([1]; 3 mg/kg twice a day 5 days a week 2 weeks) was “able to decrease the tumor growth”. The “tumor growth in vivo (in words)” value ([1]; 5 mg/kg twice a day 5 days a week 2 weeks, tumor volume and tumor weight) was “more significant”, the “tolerability in mice, body weight (in words)” value ([1]; 3 or 5 mg/kg) was “well tolerated” and the “binding to immobilized ErbB2 juxtamembrane peptide (SPR, in words)” value [2] was “bound to the immobilized peptide”. The Emax (ErbB2; SK-BR-3, 0.625-80 μM, read-out: ErbB2 activation 24 h Max inhibition, %) was 66.9%, the “maximum inhibition of ErbB2 phosphorylation” value (ErbB2) was 70% and the EC50 (ErbB2; read-out: ErbB2 activation 24 h EC50) was 23.4 µM. The IC50 (ErbB2; read-out: IC50 ErbB2 phosphorylation) was 20 µM.

From US10766873B2, “Zuclopenthixol hydrochloride derivatives and Ebselen derivatives as ErbB2 inhibitors” (Centre National de la Recherche Scientifique (CNRS), priority 2016, dated 2020)
